Data: patent US8153368B2, “Four-jointed box (FJX1) in cancer diagnosis and treatment” (Vanderbilt University, priority 2007, dated 2012)

Experiments:
FJX1 mRNA = experiment: qRT-PCR of FJX1 expression in rectal cancer biopsies before and after celecoxib; format: in vivo, human; settings: range in the four of five rectal cancers that were down-regulated; pre vs post treatment
[1] = test system: FJX1 mRNA in SW480 colon cancer cells; experiment: qRT-PCR of FJX1 mRNA after γ-secretase inhibition in SW480 cells; format: cell-based, human; settings: 200 nM DAPT vs vehicle (DMSO), 16 hrs
Procedure: FIG. 3—Decreased FJX1 expression following inhibition of […] (DAPT) in SW480 colon cancer cells. Cells were grown to 70-80% confluence using complete RPMI and then treated with 200 nM of DAPT or vehicle. The RNA was harvested 16 hrs later using an RNeasy™ kit (Qiagen). qRT-PCR was performed as outlined in the text. Gene expression values were normalized to a housekeeping gene (PMM1) for the final analysis. The values are expressed as fold-change in comparison to normal colonic mucosal levels.
(§1) FIG. 19A-B—Inhibition of Notch signaling causes a reduction in fjx1 expression in colon cancer cells. Fjx1 expression levels as determined by qRT-PCR in (FIG. 19A) SW480 and (FIG. 19B) SW620 colon cancer cells following treatment with the γ-secretase inhibitor DAPT.
Since four-jointed in Drosophila is regulated by Notch signaling, and mouse fjx1 expression appears to be a target of Notch regulation, the inventors predicted that inhibition of Notch signaling would inhibit FJX1 expression in colon cancer cells. A reliable pharmacological method of inhibiting Notch signaling is to block release of the Notch intracellular domain through inhibition of γ-secretase activity (van Es et al., 2005). Therefore, the inventors used a selective inhibitor of γ-secretase, DAPT, or vehicle (DMSO) to treat SW480 and SW620 cells for 16 hrs and determined the effect on levels of FJX1. […]

Notch pathway [2] = experiment: Notch-responsive reporter (4xCSL-Luc) in HEK293T cells; format: cell-based, human; settings: transient transfection, DAPT 200 nM or dnMAM
Procedure: FIGS. 18A-B—Experimental inactivation of Notch pathway signaling in HEK293 cells. Transient transfections of cells was carried out using a Notch promoter reporter plasmid (4xCSL) and a control reporter (pRL-tk). The Relative Light Units (4xCSL/pRL-tk) are plotted for each treatment group. (FIG. 18A) Notch activity in HEK293 cells following treatment with NICD, NICD+200 nM DAPT, LNG (negative control), LNG+200 nM DAPT and 200 nM DAPT. (FIG. 18B) Notch promoter activity in HEK293 cells following treatment with dnMAM, NICD, NICD+dnMAM, LNG and LNG+dnMAM.
FJX1 expression in colon cancer cells. In preliminary studies examining the role of fjx1 as it relates to Notch signaling in CRC, the inventors have assessed expression of fjx1 mRNA in several human colon cancer cell lines and found abundant expression of fjx1 in both SW480 and SW620 cells (in comparison with colon adenomas), and less abundant expression in HT29 cells as determined by qRT-PCR (data not shown). Since four-jointed in Drosophila is regulated by Notch signaling, and mouse fjx1 expression appears to be a target of Notch regulation, the inventors predicted that inhibition of Notch signaling would inhibit fjx1 expression in colon cancer cells. A reliable pharmacological method of inhibiting Notch signaling is to block release of the Notch intracellular domain through inhibition of γ-secretase activity (van Es, 2005). […]

Notch pathway [3] = experiment: Notch-responsive reporter (4xCSL-Luc) in SW480 cells; format: cell-based, human; settings: data not shown
From the text: FJX1 expression in colon cancer cells. In preliminary studies examining the role of fjx1 as it relates to Notch signaling in CRC, the inventors have assessed expression of fjx1 mRNA in several human colon cancer cell lines and found abundant expression of fjx1 in both SW480 and SW620 cells (in comparison with colon adenomas), and less abundant expression in HT29 cells as determined by qRT-PCR (data not shown). Since four-jointed in Drosophila is regulated by Notch signaling, and mouse fjx1 expression appears to be a target of Notch regulation, the inventors predicted that inhibition of Notch signaling would inhibit fjx1 expression in colon cancer cells. A reliable pharmacological method of inhibiting Notch signaling is to block release of the Notch intracellular domain through inhibition of γ-secretase activity (van Es, 2005). A complementary genetic method of Notch inhibition is through the use of a truncated, dominant negative construct of Mastermind or “dnMAM” (pCS2-Myc 1-30aa Mastermind a gift from K. A. Jones, Ph.D., the Salk Institute, La Jolla, Calif.) (Fryer, 2002). The dnMAM is mutated such that it cannot form a functional RBPJ complex and therefore, cannot activate the Notch responsive promoter. […] The inventors have also used DAPT treatments of SW480 and SW620 cells (200 nM for 16 hrs) to block expression of fjx1 in response to Notch signaling (FIG. 19).

[4] = test system: FJX1 mRNA in SW620 colon cancer cells; experiment: qRT-PCR of FJX1 mRNA after γ-secretase inhibition in SW620 cells; format: cell-based, human; settings: 200 nM DAPT vs vehicle (DMSO), 16 hrs
From the text: as §1
Since four-jointed in Drosophila is regulated by Notch signaling, and mouse fjx1 expression appears to be a target of Notch regulation, the inventors predicted that inhibition of Notch signaling would inhibit FJX1 expression in colon cancer cells. A reliable pharmacological method of inhibiting Notch signaling is to block release of the Notch intracellular domain through inhibition of γ-secretase activity (van Es et al., 2005). Therefore, the inventors used a selective inhibitor of γ-secretase, DAPT, or vehicle (DMSO) to treat SW480 and SW620 cells for 16 hrs and determined the effect on levels of FJX1.
FJX1 expression in colon cancer cells. In preliminary studies examining the role of fjx1 as it relates to Notch signaling in CRC, the inventors have assessed expression of fjx1 mRNA in several human colon cancer cell lines and found abundant expression of fjx1 in both SW480 and SW620 cells (in comparison with colon adenomas), and less abundant expression in HT29 cells as determined by qRT-PCR (data not shown). […]

| SMILES | fjx1 mRNA decrease after Celecoxib treatment (qRT-PCR) (FJX1 mRNA) | levels of FJX1 mRNA [1] | Notch promoter reporter activity (4xCSL/pRL-tk relative light units) (Notch pathway [2]) | Notch promoter reporter activity (4xCSL-Luc) (Notch pathway [3]) | levels of FJX1 mRNA [4] |
| --- | --- | --- | --- | --- | --- |
| Cc1ccc(-c2cc(C(F)(F)F)nn2-c2ccc(S(N)(=O)=O)cc2)cc1 [celecoxib] | 2.5-17.5 fold decrease |  |  |  |  |
| C[C@H](NC(=O)Cc1cc(F)cc(F)c1)C(=O)N[C@H](C(=O)OC(C)(C)C)c1ccccc1 [DAPT] |  | reduced the levels of FJX1 mRNA | specific Notch pathway inhibition | specific Notch pathway inhibition | reduced the levels of FJX1 mRNA |
